In experiment [1] the target is T1, Melatonin receptor type 1B (Homo sapiens, UniProt P49286).
T1 sequence (P49286 whole entry): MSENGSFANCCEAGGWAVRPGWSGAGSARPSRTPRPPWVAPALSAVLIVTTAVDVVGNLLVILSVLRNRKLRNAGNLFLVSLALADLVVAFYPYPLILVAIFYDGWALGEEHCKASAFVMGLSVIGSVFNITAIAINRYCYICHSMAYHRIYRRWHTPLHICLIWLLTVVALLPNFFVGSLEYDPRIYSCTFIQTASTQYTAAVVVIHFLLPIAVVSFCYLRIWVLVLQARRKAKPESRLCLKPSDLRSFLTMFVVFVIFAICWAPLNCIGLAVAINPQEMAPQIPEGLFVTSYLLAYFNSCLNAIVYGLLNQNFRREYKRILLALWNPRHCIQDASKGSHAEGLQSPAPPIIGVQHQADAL
The experiment can be described thus: Inhibition of 2-[125I]iodomelatonin binding to human melatonin receptor MT2 expressed in […] cells. The experiment is classed as cell-based.

Experiment [2] concerns the target Melatonin receptor type 1A (Homo sapiens, UniProt P48039). In words: Inhibition of 2-[125I]iodomelatonin binding to human melatonin receptor type 1A (MT1) expressed in […] cells. The experiment is classed as cell-based.
Experiment [3] concerns the target T2, Melatonin receptor type 1B (Homo sapiens) (UniProt P49286).
T2 sequence (whole entry): T1 sequence (P49286 whole entry)
In words: Intrinsic activity in [35S]GTP-gamma-S, binding at human melatonin receptor MT2 relative to melatonin. Type of experiment: functional. For orientation: GTPγS resists hydrolysis and so accumulates on activated G proteins.

Results on six compounds are retold here after ChEMBL document CHEMBL1139541 (J Med Chem, 2005).

Structures are written as SMILES.

Sequence of Melatonin receptor type 1A (P48039 whole entry): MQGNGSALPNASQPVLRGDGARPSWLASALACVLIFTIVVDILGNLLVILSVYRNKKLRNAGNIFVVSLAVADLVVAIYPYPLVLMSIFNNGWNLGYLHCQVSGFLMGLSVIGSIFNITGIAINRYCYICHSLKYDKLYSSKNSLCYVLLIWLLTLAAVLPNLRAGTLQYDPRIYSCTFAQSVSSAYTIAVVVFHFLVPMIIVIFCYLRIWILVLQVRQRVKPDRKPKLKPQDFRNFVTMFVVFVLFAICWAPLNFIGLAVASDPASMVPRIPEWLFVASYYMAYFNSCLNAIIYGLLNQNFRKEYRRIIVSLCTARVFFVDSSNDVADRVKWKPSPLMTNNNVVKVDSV

Consider `CCC(=O)NC1Cc2ccccc2C(c2ccccc2)C1` (centres undefined), for which the Ki in experiment [1] was 0.0158 nM; in experiment [2] it was 105 nM.
Regarding `CCC(=O)NCc1cc2c(OC)cccc2n1Cc1ccc(Cl)cc1`, the IA in experiment [3] is 0.01.
For `CCC(=O)NCc1cc2c(OC)cccc2n1C(=O)c1ccc(Cl)cc1`, the values for the Ki in experiment [1] and in experiment [2] were 1820 nM and over 10000 nM, respectively. In experiment [3], this compound registered an IA of -0.08.
For `CCC(=O)NCc1cc2c(OC)cccc2n1Cc1c(C)cccc1C`, the Ki in experiment [1] is 6030 nM; in experiment [2] it was over 10000 nM. Besides, in experiment [3], the IA came to 0.16.
Consider `COc1cc2c(cc1OC)C(CC(c1ccccc1)c1ccccc1)N(C(C)=O)CC2` (centres undefined), for which the Ki is 9.77 nM in experiment [1] and over 1000 nM in experiment [2].
In the case of `CCC(=O)NCc1cc2c(OC)cccc2n1S(=O)(=O)c1ccccc1`, the Ki in experiment [1] was 288 nM; in experiment [2], over 10000 nM. In experiment [3], this compound showed an IA of 0.08.

As a reminder, the Ki is the dissociation constant of the complex between target and ligand, obtained from inhibition or displacement. Read a low Ki as tighter binding.
